Experimental data reported in PubChem BioAssay (NCI).
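A five-concentration, 48-hour dose response in 96-well plates underlies each endpoint, interpolated linearly between surrounding concentrations. At the TGI there is no net growth.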

Columns and labels:
Assay in all cases: growth of human tumour cells (NCI), 48 h
SK-MEL-28 melanoma = test system: SK-MEL-28 melanoma
CAKI-1 renal = test system: CAKI-1 renal
KM12 colon = test system: KM12 colon
PC-3 prostate = test system: PC-3 prostate
DU-145 prostate = test system: DU-145 prostate
SF-295 CNS = test system: SF-295 CNS
T-47D breast = test system: T-47D breast
786-0 renal = test system: 786-0 renal
NCI-H522 lung = test system: NCI-H522 lung
BT-549 breast = test system: BT-549 breast

SMILES | TGI (SK-MEL-28 melanoma) | TGI (CAKI-1 renal) | TGI (KM12 colon) | TGI (PC-3 prostate) | TGI (DU-145 prostate) | TGI (SF-295 CNS) | TGI (T-47D breast) | TGI (786-0 renal) | TGI (NCI-H522 lung) | TGI (BT-549 breast)
COC(=O)N1C[C@@]2(C=CC3(CC2)OCCO3)c2ccccc21 | > 100 µM | > 100 µM | > 100 µM | > 100 µM | > 100 µM | > 100 µM | > 100 µM | > 100 µM |  | 
O=C1c2cc3c(cc2CC12Cc1cc4c(cc1C2=O)CCCC4)CCCC3 | > 100 µM |  | > 100 µM | > 100 µM | > 100 µM | 69 µM | 89.1 µM | 52.4 µM | > 100 µM | > 100 µM
CN(C)c1ccc(/C=C/C=C\C2=CC(=C\C=C/C=C3C=CC(=[N+](C)C)C=C3)/Sc3ccccc32)cc1 | 28.9 µM |  | > 100 µM |  |  | > 100 µM |  | > 100 µM |  | 
C=CCONC(=O)c1ccc(Cl)cc1 | > 100 µM | > 100 µM | > 100 µM |  |  | > 100 µM |  | > 100 µM | > 100 µM | 
NC(=O)OCC(COc1ccc(Cl)cc1)OC(=O)c1ccccc1Cl (centres undefined) | 37.7 µM | 74.8 µM | 45.5 µM |  |  | 62.2 µM |  | 36.6 µM | 31.9 µM | 
C/C(CN1C(=O)c2ccccc2C1=O)=N\NS(=O)(=O)c1ccc(Br)cc1 | > 100 µM | > 100 µM | > 100 µM |  |  | > 100 µM |  | > 100 µM | > 100 µM | 
CC#COP(=O)(OCC)OCC |  | > 100 µM | > 100 µM |  |  | > 100 µM |  | > 100 µM | > 100 µM | 
COc1ccc(OC)c2sc(N3C(=O)/C(=C/Cc4ccco4)N=C3c3ccccc3)nc12 | > 100 µM | > 100 µM | > 100 µM | 71.5 µM | > 100 µM | > 100 µM | 79.8 µM | > 100 µM |  | > 100 µM
CSC1=N[C@H](c2ccccc2)CS1 | > 100 µM | > 100 µM | > 100 µM | > 100 µM | > 100 µM | > 100 µM | > 100 µM | > 100 µM |  | > 100 µM
NC(=S)NNC(=O)/C(=C/c1ccc(/C=C(\NC(=O)c2ccccc2)C(=O)NNC(N)=S)cc1)NC(=O)c1ccccc1 | > 100 µM | > 100 µM | > 100 µM |  |  | > 100 µM |  | > 100 µM | > 71.1 µM | 
COc1cc(S(=O)(=O)Nc2ccc(-c3csc(N4C(=O)CSC4c4cccs4)n3)cc2)ccc1Cl (centres undefined) | 39.5 µM | > 100 µM | 48.7 µM | > 100 µM | 62 µM | > 100 µM |  | > 100 µM | 33.9 µM | 70.5 µM
Cc1occc1C(=S)Nc1ccc(Cl)c(C(=O)OCC(F)(F)F)c1 | 42.6 µM | 82.6 µM | 44.4 µM | 57.8 µM | 47.1 µM |  | 72.4 µM | 34.6 µM | 45.5 µM | 42.7 µM
CCOC(=O)/C(C)=C\[C@@]1(C)O[C@@H](C)[C@@](C)(OC(C)=O)[C@@H]1OC(C)=O | > 100 µM | > 100 µM | > 100 µM | > 100 µM | > 100 µM | > 100 µM | 59.8 µM | > 100 µM | 62.7 µM | 
C[C@H]1[C@H](C)N(Cc2ccccc2)P(=O)(C(O)/C=C/c2ccccc2)N1Cc1ccccc1 (some centres undefined) | > 25 µM | > 25 µM | > 25 µM | 13 µM |  | 20.1 µM | 22.9 µM | 10.9 µM | > 25 µM | > 25 µM
CC(=O)OCC(=O)[C@@]1(O)CC[C@H]2[C@@H]3CCC4=CC(=O)[C@H](C)C[C@]4(C)[C@H]3[C@@H](O)C[C@@]21C | > 100 µM | > 100 µM | > 100 µM |  |  | > 100 µM |  | > 100 µM | > 100 µM | 
CCOC(=O)/C(O)=C(/C=N\C(=S)Nc1ccccc1Cl)C(=O)OCC | > 100 µM | > 100 µM | > 100 µM | > 100 µM | > 100 µM | > 100 µM | > 100 µM | > 100 µM | > 100 µM | 
CC1=C/C(=N\OCC(=O)O)CC(c2ccc(C(C)C)cc2)C1 (centres undefined) |  | > 100 µM | > 100 µM | > 100 µM | > 100 µM | > 100 µM | > 100 µM | > 100 µM | 79.1 µM | 
c1ccc(Nc2nnc(CSc3nc(-c4ccccc4)c(-c4ccccc4)[nH]3)s2)cc1 | 44.6 µM |  | 44.1 µM |  |  | 36 µM |  | 39.3 µM | 34.9 µM | 
CCOC(=O)NC(C(F)(F)F)(C(F)(F)F)P(=O)(OC(C)C)OC(C)C | > 100 µM |  | > 100 µM | > 100 µM | > 100 µM | > 100 µM |  | > 100 µM |  | > 100 µM
COc1ccc(/C=C2/C(C)=NN(c3cccc(Cl)c3)/C2=N/c2nc3ccccc3s2)cc1 | 46.9 µM | 86.6 µM | > 100 µM | 38 µM | 39.4 µM | 49.5 µM | > 100 µM | 38.1 µM | 35.2 µM | 
CC1=NC(=O)C(C)(c2ccccc2)N1CCc1ccccc1 (centres undefined) |  | > 100 µM | > 100 µM | > 100 µM | > 100 µM | > 100 µM | > 100 µM | > 100 µM | > 100 µM | > 100 µM
COc1cc(Br)c(OC)c2c(OC)cc(C)cc12 | > 100 µM |  | > 100 µM | > 100 µM | > 100 µM | > 100 µM | > 100 µM | > 100 µM | > 100 µM | > 100 µM
COc1cc2c(/C=C3/C(=O)Nc4ccc(Cl)cc43)c(Cl)n(Cc3ccccc3)c2cc1C | 9.46 µM | 10.6 µM | 5.64 µM | 22.2 µM | 16.1 µM | 7.19 µM | 13.9 µM | 6.41 µM |  | 22.6 µM
CCCCCCn1c(SCC)c2ccccc2c1-c1nc(F)nc(F)n1 | > 100 µM | > 100 µM | > 100 µM |  |  | > 100 µM |  | > 100 µM | > 100 µM | 
O=C1CSC2(CC(/C=C/c3ccccc3O)=NN2c2cccc(S(=O)(=O)O)c2)N1c1nc2ccccc2s1 (centres undefined) | > 100 µM | > 100 µM | > 100 µM | > 100 µM | 97.5 µM |  | 65.4 µM | 98.7 µM | 30.4 µM | 77 µM
O=C(O)C1CC2C3CCC2C1C3=O (centres undefined) | > 100 µM | > 100 µM | > 100 µM | > 100 µM | > 100 µM | > 100 µM | > 100 µM | > 100 µM | > 100 µM | 
